Results taken from ChEMBL document CHEMBL1158932, “Cytotoxic pyridone alkaloids from the leaves of Piper aborescens” (1990).
Values after ≈ are worked out from the molar mass of the structure shown.

Columns and labels:
Assay type in all cases: functional
P388 = test: Cytotoxicity against mouse P388 cells after 3 days by MTT assay; settings: P388, 72 h, read-out: ED50 (the source's name)
A549 = test: Cytotoxicity against human A549 cells after 6 days by MTT assay; settings: A549, 144 h, read-out: ED50 (the source's name)
KB = test: Cytotoxicity against human KB cells after 3 days by MTT assay; settings: 72 h, read-out: ED50 (the source's name)
HT-29 = test: Cytotoxicity against human HT-29 cells after 6 days by MTT assay; settings: HT-29, 144 h, read-out: ED50 (the source's name)

SMILES	EC50 (P388) [µg/mL]	EC50 (A549) [µg/mL]	EC50 (KB) [µg/mL]	EC50 (HT-29) [µg/mL]
COc1cc(/C=C/C(=O)N2CCC=CC2=O)cc(OC)c1OC [PIPLARTINE]	0.9 (≈ 2.84 µM)	0.6 (≈ 1.89 µM)	1.8 (≈ 5.67 µM)	0.45 (≈ 1.42 µM)
COc1cc(CCC(=O)N2CCC=CC2=O)cc2c1OCO2	2.21 (≈ 7.29 µM)	5.76 (≈ 19 µM)	4.99 (≈ 16.5 µM)	3.8 (≈ 12.5 µM)
COc1cc(C2C(C(=O)N3CCC=CC3=O)[C@H](c3cc(OC)c(OC)c(OC)c3)[C@@H]2C(=O)N2CCC=CC2=O)cc(OC)c1OC (stereo partly specified) [PIPLARTINE DIMER A]	3.06 (≈ 4.82 µM)	2.21 (≈ 3.48 µM)	3.9 (≈ 6.14 µM)	2.49 (≈ 3.92 µM)
COc1cc(/C=C/C(=O)N2CCC=CC2=O)cc2c1OCO2	0.43 (≈ 1.43 µM)	2.57 (≈ 8.53 µM)	2.62 (≈ 8.7 µM)	2.15 (≈ 7.14 µM)
